One compound from BindingDB's records for doi:10.1021/jm00021a021 (Tsukuba Research Institute, 1995) can be followed below.

The target of the assay is T1, Endothelin-1 receptor (Sus scrofa, UniProt Q29010).
T1 sequence (Q29010 whole entry): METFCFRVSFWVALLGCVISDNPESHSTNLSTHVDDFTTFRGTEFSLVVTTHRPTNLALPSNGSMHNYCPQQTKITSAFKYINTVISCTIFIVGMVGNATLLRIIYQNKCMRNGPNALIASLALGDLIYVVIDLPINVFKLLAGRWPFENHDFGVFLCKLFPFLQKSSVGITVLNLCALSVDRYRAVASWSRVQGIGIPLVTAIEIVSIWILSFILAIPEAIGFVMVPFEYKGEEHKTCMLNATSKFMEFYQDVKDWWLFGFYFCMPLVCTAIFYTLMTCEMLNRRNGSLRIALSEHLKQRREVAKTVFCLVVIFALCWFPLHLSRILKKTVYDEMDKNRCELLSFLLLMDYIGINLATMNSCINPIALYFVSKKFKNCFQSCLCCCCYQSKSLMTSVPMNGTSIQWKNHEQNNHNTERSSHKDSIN
Nature of the assay: The compound was tested for binding inhibitory activity against Endothelin A receptor from porcine aortic smooth muscle membranes.

For orientation: IC50 means the concentration that gives 50% inhibition. For `CC(C)C[C@@H]1NC(=O)[C@@H](CC(C)C)NC(=O)[C@H](C)NC(=O)[C@@H](CC(=O)O)NC(=O)[C@@H](Cc2c[nH]c3ccccc23)NC1=O`, the IC50 is 440 nM. That is a sub-micromolar value.
